7 compounds from patent US20150141336A1, “Pancreatic Peptide Compounds and Use” (Novo Nordisk A/S, priority 2012, published 2015) can be followed below.

Numbered stars: 1 amine (or outer) side, 2 acyl side, 3 side chain; on linkers, the order of the positions; unused ones are H or OH. Side chains are listed from the residue outwards. Peptide text beside a SMILES is read from it. * marks the point of attachment. C18 diacid = O=C(O)CCCCCCCCCCCCCCCCC(=O)*; γGlu = O=C(O)[C@H](CCC(=O)[*:2])N[*:1]; AEEA = NCCOCCOCC(=O)O

This data set is described as follows: Assay (II) PK i.v. minipig, in vivo half-life. On the set-up: species or system Göttingen mini-pigs. As to conditions: male, Göttingen, minipig, iv, Half-life minipig, Assay (II). The essentials:
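Male Göttingen mini-pigs (18–22 kg, n=5) received 6 nmol/kg i.v. via central catheter, formulated in 50 mM K2HPO4, 0.05% tween 80, pH 8.0. EDTA plasma sampled pre-dose to 240 h, quantified by TFC/LC/MS/MS (MRM, range 1-2000 nmol/l); half-life from non-compartmental analysis per animal.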
In the case of `CC[C@H](C)[C@H](NC(=O)[C@H](Cc1ccc(O)cc1)NC(=O)[C@H](CCCNC(=N)N)NC(=O)[C@H](CCCNC(=N)N)NC(=O)[C@H](CCCCNC(=O)COCCOCCNC(=O)COCCOCCNC(=O)CC[C@H](NC(=O)CCCCCCCCCCCCCCCCC(=O)O)C(=O)O)NC(=O)[C@H](CC(=O)O)NC(=O)[C@H](C)NC(=O)[C@H](C)NC(=O)[C@H](Cc1ccc(O)cc1)NC(=O)[C@H](CCC(N)=O)NC(=O)[C@H](C)NC(=O)[C@H](CCSC)NC(=O)[C@H](CCC(N)=O)NC(=O)[C@H](CCC(=O)O)NC(=O)[C@@H]1CCCN1C(=O)[C@@H](NC(=O)[C@H](C)NC(=O)[C@H](CC(N)=O)NC(=O)[C@H](CC(=O)O)NC(=O)CNC(=O)[C@@H]1CCCN1C(=O)[C@H](Cc1ccc(O)cc1)NC(=O)[C@@H](NC(=O)[C@@H]1CCCN1C(=O)[C@H](CCC(=O)O)NC(=O)[C@H](CC(C)C)NC(=O)[C@@H]1CCCN1)C(C)C)[C@@H](C)O)C(=O)N[C@@H](CC(N)=O)C(=O)N[C@@H](CCSC)C(=O)N[C@@H](CC(C)C)C(=O)N[C@H](C(=O)N[C@@H](CCCNC(=N)N)C(=O)N1CCC[C@H]1C(=O)N[C@@H](CCCNC(=N)N)C(=O)N[C@@H](Cc1ccc(O)cc1)C(N)=O)[C@@H](C)O` [Compound J] (H-PLEPVYPGDNATPEQMAQYAADK([AEEA-AEEA-γGlu-C18 diacid])RRYINMLTRPRY-NH2; N-terminus and C-terminus assumed), the half-life is 44 h.

In the case of `CC[C@H](C)[C@H](NC(=O)[C@H](Cc1ccc(O)cc1)NC(=O)[C@H](CCCNC(=N)N)NC(=O)[C@H](CCCNC(=N)N)NC(=O)[C@H](CC(C)C)NC(=O)[C@H](CC(=O)O)NC(=O)[C@H](C)NC(=O)[C@H](C)NC(=O)[C@H](Cc1ccc(O)cc1)NC(=O)[C@H](CCC(N)=O)NC(=O)[C@H](C)NC(=O)[C@H](CCSC)NC(=O)[C@H](CCC(N)=O)NC(=O)[C@H](CCC(=O)O)NC(=O)[C@@H]1CCCN1C(=O)[C@@H](NC(=O)[C@H](C)NC(=O)[C@H](CC(N)=O)NC(=O)[C@H](CC(=O)O)NC(=O)CNC(=O)[C@@H]1CCCN1C(=O)[C@H](Cc1ccc(O)cc1)NC(=O)[C@@H](NC(=O)[C@@H]1CCCN1C(=O)[C@H](CCC(=O)O)NC(=O)[C@@H](N)CC(C)C)C(C)C)[C@@H](C)O)C(=O)N[C@@H](CC(N)=O)C(=O)N[C@@H](CCSC)C(=O)N[C@@H](CC(C)C)C(=O)N[C@@H](CCCCNC(=O)COCCOCCNC(=O)COCCOCCNC(=O)CC[C@H](NC(=O)CCCCCCCCCCCCCCCCC(=O)O)C(=O)O)C(=O)N[C@@H](CCCNC(=N)N)C(=O)N1CCC[C@H]1C(=O)N[C@@H](CCCNC(=N)N)C(=O)N[C@@H](Cc1ccc(O)cc1)C(N)=O` [Compound AJ] (H-LEPVYPGDNATPEQMAQYAADLRRYINMLK([AEEA-AEEA-γGlu-C18 diacid])RPRY-NH2; N-terminus and C-terminus assumed), the half-life is 80 h.

Take `CC[C@H](C)[C@H](NC(=O)[C@H](Cc1ccc(O)cc1)NC(=O)[C@H](CCCNC(=N)N)NC(=O)[C@H](CCCNC(=N)N)NC(=O)[C@H](CC(C)C)NC(=O)[C@H](CC(=O)O)NC(=O)[C@H](C)NC(=O)[C@H](CCCCNC(=O)COCCOCCNC(=O)COCCOCCNC(=O)CC[C@H](NC(=O)CCCCCCCCCCCCCCCCC(=O)O)C(=O)O)NC(=O)[C@H](Cc1ccc(O)cc1)NC(=O)[C@H](CCC(N)=O)NC(=O)[C@H](C)NC(=O)[C@H](CCSC)NC(=O)[C@H](CCC(N)=O)NC(=O)[C@H](CCC(=O)O)NC(=O)[C@@H]1CCCN1C(=O)[C@@H](NC(=O)[C@H](C)NC(=O)[C@H](CC(N)=O)NC(=O)[C@H](CC(=O)O)NC(=O)CNC(=O)[C@@H]1CCCN1C(=O)[C@H](Cc1ccc(O)cc1)NC(=O)[C@@H](NC(=O)[C@@H]1CCCN1C(=O)[C@H](CCC(=O)O)NC(=O)[C@@H](N)CC(C)C)C(C)C)[C@@H](C)O)C(=O)N[C@@H](CC(N)=O)C(=O)N[C@@H](CCSC)C(=O)N[C@@H](CC(C)C)C(=O)N[C@H](C(=O)N[C@@H](CCCNC(=N)N)C(=O)N1CCC[C@H]1C(=O)N[C@@H](CCCNC(=N)N)C(=O)N[C@@H](Cc1ccc(O)cc1)C(N)=O)[C@@H](C)O` [Compound AU] (H-LEPVYPGDNATPEQMAQYK([AEEA-AEEA-γGlu-C18 diacid])ADLRRYINMLTRPRY-NH2; N-terminus and C-terminus assumed): the half-life is 59 h.

Turning to `CC[C@H](C)[C@H](NC(=O)[C@H](Cc1ccc(O)cc1)NC(=O)[C@H](CCCNC(=N)N)NC(=O)[C@H](CCCNC(=N)N)NC(=O)[C@H](CC(C)C)NC(=O)[C@H](CC(=O)O)NC(=O)[C@H](C)NC(=O)[C@H](C)NC(=O)[C@H](Cc1ccc(O)cc1)NC(=O)[C@H](CCC(N)=O)NC(=O)[C@H](C)NC(=O)[C@H](CCSC)NC(=O)[C@H](CCC(N)=O)NC(=O)[C@H](CCC(=O)O)NC(=O)[C@@H]1CCCN1C(=O)[C@@H](NC(=O)[C@H](C)NC(=O)[C@H](CC(N)=O)NC(=O)[C@H](CC(=O)O)NC(=O)CNC(=O)[C@@H]1CCCN1C(=O)[C@H](Cc1ccc(O)cc1)NC(=O)[C@@H](NC(=O)[C@@H]1CCCN1C(=O)[C@H](CCC(=O)O)NC(=O)[C@H](CC(C)C)NC(=O)[C@@H]1CCCN1)C(C)C)[C@@H](C)O)C(=O)N[C@@H](CC(N)=O)C(=O)N[C@@H](CCSC)C(=O)N[C@@H](CC(C)C)C(=O)N[C@H](C(=O)N[C@@H](CCCNC(=N)N)C(=O)N[C@@H](CCCCNC(=O)COCCOCCNC(=O)COCCOCCNC(=O)CC[C@H](NC(=O)CCCCCCCCCCCCCCCCC(=O)O)C(=O)O)C(=O)N[C@@H](CCCNC(=N)N)C(=O)N[C@@H](Cc1ccc(O)cc1)C(N)=O)[C@@H](C)O` [Compound A] (H-PLEPVYPGDNATPEQMAQYAADLRRYINMLTRK([AEEA-AEEA-γGlu-C18 diacid])RY-NH2; N-terminus and C-terminus assumed), the half-life is 99 h.

On to `CC[C@H](C)[C@H](NC(=O)[C@H](Cc1ccc(O)cc1)NC(=O)[C@H](CCCNC(=N)N)NC(=O)[C@H](CCCNC(=N)N)NC(=O)[C@H](CC(C)C)NC(=O)[C@H](CC(=O)O)NC(=O)[C@H](C)NC(=O)[C@H](C)NC(=O)[C@H](Cc1ccc(O)cc1)NC(=O)[C@H](CCC(N)=O)NC(=O)[C@H](C)NC(=O)[C@H](CCSC)NC(=O)[C@H](CCC(N)=O)NC(=O)[C@H](CCC(=O)O)NC(=O)[C@@H]1CCCN1C(=O)[C@@H](NC(=O)[C@H](C)NC(=O)[C@H](CC(N)=O)NC(=O)[C@H](CC(=O)O)NC(=O)CNC(=O)[C@@H]1CCCN1C(=O)[C@H](Cc1ccc(O)cc1)NC(=O)[C@@H](NC(=O)[C@@H]1CCCN1C(=O)[C@H](CCCCNC(=O)COCCOCCNC(=O)COCCOCCNC(=O)CC[C@H](NC(=O)CCCCCCCCCCCCCCCCC(=O)O)C(=O)O)NC(=O)[C@H](CC(C)C)NC(=O)[C@@H]1CCCN1)C(C)C)[C@@H](C)O)C(=O)N[C@@H](CC(N)=O)C(=O)N[C@@H](CCSC)C(=O)N[C@@H](CC(C)C)C(=O)N[C@H](C(=O)N[C@@H](CCCNC(=N)N)C(=O)N1CCC[C@H]1C(=O)N[C@@H](CCCNC(=N)N)C(=O)N[C@@H](Cc1ccc(O)cc1)C(N)=O)[C@@H](C)O` [Compound AD], for which the half-life was 52 h.

For `CC[C@H](C)[C@H](NC(=O)[C@H](Cc1ccc(O)cc1)NC(=O)[C@H](CCCNC(=N)N)NC(=O)[C@H](CCCNC(=N)N)NC(=O)[C@H](CC(C)C)NC(=O)[C@H](CC(=O)O)NC(=O)[C@H](C)NC(=O)[C@H](C)NC(=O)[C@H](Cc1ccc(O)cc1)NC(=O)[C@H](CCC(N)=O)NC(=O)[C@H](C)NC(=O)[C@H](CCSC)NC(=O)[C@H](CCC(N)=O)NC(=O)[C@H](CCC(=O)O)NC(=O)[C@@H]1CCCN1C(=O)[C@H](CCCCNC(=O)COCCOCCNC(=O)COCCOCCNC(=O)CC[C@H](NC(=O)CCCCCCCCCCCCCCCCC(=O)O)C(=O)O)NC(=O)[C@H](C)NC(=O)[C@H](CC(N)=O)NC(=O)[C@H](CC(=O)O)NC(=O)CNC(=O)[C@@H]1CCCN1C(=O)[C@H](Cc1ccc(O)cc1)NC(=O)[C@@H](NC(=O)[C@@H]1CCCN1C(=O)[C@H](CCC(=O)O)NC(=O)[C@@H](N)CC(C)C)C(C)C)C(=O)N[C@@H](CC(N)=O)C(=O)N[C@@H](CCSC)C(=O)N[C@@H](CC(C)C)C(=O)N[C@H](C(=O)N[C@@H](CCCNC(=N)N)C(=O)N1CCC[C@H]1C(=O)N[C@@H](CCCNC(=N)N)C(=O)N[C@@H](Cc1ccc(O)cc1)C(N)=O)[C@@H](C)O` [Compound BC] (H-LEPVYPGDNAK([AEEA-AEEA-γGlu-C18 diacid])PEQMAQYAADLRRYINMLTRPRY-NH2; N-terminus and C-terminus assumed), the half-life is 16 h.

On to `CC[C@H](C)[C@H](NC(=O)[C@H](CCCCNC(=O)COCCOCCNC(=O)COCCOCCNC(=O)CC[C@H](NC(=O)CCCCCCCCCCCCCCCCC(=O)O)C(=O)O)NC(=O)[C@H](CCCNC(=N)N)NC(=O)[C@H](CCCNC(=N)N)NC(=O)[C@H](CC(C)C)NC(=O)[C@H](CC(=O)O)NC(=O)[C@H](C)NC(=O)[C@H](C)NC(=O)[C@H](Cc1ccc(O)cc1)NC(=O)[C@H](CCC(N)=O)NC(=O)[C@H](C)NC(=O)[C@H](CCSC)NC(=O)[C@H](CCC(N)=O)NC(=O)[C@H](CCC(=O)O)NC(=O)[C@@H]1CCCN1C(=O)[C@@H](NC(=O)[C@H](C)NC(=O)[C@H](CC(N)=O)NC(=O)[C@H](CC(=O)O)NC(=O)CNC(=O)[C@@H]1CCCN1C(=O)[C@H](Cc1ccc(O)cc1)NC(=O)[C@@H](NC(=O)[C@@H]1CCCN1C(=O)[C@H](CCC(=O)O)NC(=O)[C@H](CC(C)C)NC(=O)[C@@H]1CCCN1)C(C)C)[C@@H](C)O)C(=O)N[C@@H](CC(N)=O)C(=O)N[C@@H](CCSC)C(=O)N[C@@H](CC(C)C)C(=O)N[C@H](C(=O)N[C@@H](CCCNC(=N)N)C(=O)N1CCC[C@H]1C(=O)N[C@@H](CCCNC(=N)N)C(=O)N[C@@H](Cc1ccc(O)cc1)C(N)=O)[C@@H](C)O` [Compound G] (H-PLEPVYPGDNATPEQMAQYAADLRRK([AEEA-AEEA-γGlu-C18 diacid])INMLTRPRY-NH2; N-terminus and C-terminus assumed), for which the half-life is 96 h.
